Experimental data reported in patent publication US20090124636A1, “CHEMICAL COMPOUNDS” (priority 2006, published 2009).
Like-named read-outs stand apart in the source and are kept apart here.

Test system: HIV-1 fusion
Assay: cells
Format: cell-based
Description: The gp160 induced cell-cell fusion assay uses a HeLa P4 cell line and a CHO-Tat10 cell line.
The HeLa P4 cell line expresses CCR5 and CD4 and has been transfected with HIV-1 LTR-β-Galactosidase. The media for this cell line is Dulbecco modified eagle's medium (D-MEM) (without L-glutamine) containing 10% foetal calf serum (FCS), 2 mM L-glutamine, penicillin/streptomycin (Pen/Strep; 100 U/mL penicillin+[…] streptomycin), and 1 μg/ml puromycin.
The CHO cell line is a Tat (transcriptional trans activator)-expressing clone from a CHO JRR17.1 cell line that has been transfected with pTat puro plasmid. The media for this cell line is rich medium for mammalian cell culture originally developed at Roswell Park Memorial Institute RPMI1640 (without L-glutamine) containing 10% FCS, 2 mM L-glutamine, 0.5 mg/ml Hygromycin B and 12 μg/ml puromycin. The CHO JRR17.1 line expresses gp160 (JRFL) and is a clone that has been selected for its ability to fuse with a CCR5/CD4 expressing cell line.
Upon cell fusion, Tat present in the CHO cell is able to transactivate the HIV-1 long terminal repeat (LTR) present in the HeLa cell leading to the expression of the β-Galactosidase enzyme. This expression is then measured using a Fluor Ace™ β-Galactosidase reporter assay kit (Bio-Rad cat no. 170-3150). This kit is a quantitative fluorescent assay that determines the level of expression of β-galactosidase using 4-methylumbelliferyl-galactopyranoside (MUG) as substrate. β-Galactosidase hydrolyses the fluorogenic substrate resulting in release of the fluorescent molecule 4-methylumbelliferone (4 MU). Fluorescence of 4-methylumbelliferone is then measured on a fluorometer using an excitation wavelength of 360 nm and emission wavelength of 460 nm.

[1] = HIV cell fusion assay, HeLa P4 (CCR5/CD4) and CHO-Tat10 (gp160 JRFL) cells, read-out: IC50
[2] = HIV cell fusion assay, unit μm printed under the cell, read-out: IC50
[3] = Human immunodeficiency virus 1, HeLaP4

In the case of COCC(=O)N(Cc1ccccc1F)[C@@H]1CCN(C2(C)CCN(C(=O)c3ccc(F)cc3Cl)CC2)C1 [Example 66], the IC50 [1] is reported as 28.5 nM.

In the case of Cc1cc[n+]([O-])c(C)c1C(=O)N1CCC(C)(N2CC[C@@H](N(Cc3ccccc3)C(=O)C3CC3)C2)CC1 [Example 65], the IC50 [1] is reported as 26.5 nM.

O=C(c1ccccc1)N1CCC(N2CC[C@@H](N(Cc3ccccc3)C(=O)C3CC3)C2)CC1 [Example 56] gave an IC50 [2] of 1900 nM.

For COCC(=O)N(Cc1ccccc1F)[C@@H]1CCN(C2(C)CCN(C(=O)c3c(C)ncnc3C)CC2)C1 [Example 64], the IC50 [1] was 16.6 nM.

CCOC(=O)N(Cc1ccccc1)[C@@H]1CCN(C2CCN(C(=O)c3c(C)ncnc3C)CC2)C1 [Example 38] gave an IC50 [1] of 135 nM.

With COCCC(=O)N(Cc1ccccc1)[C@@H]1CCN(C2CCN(C(=O)c3c(C)cccc3C)CC2)C1 [Example 13] the IC50 [1] was 4.83 nM.

Compound CCCNC(=O)N(Cc1ccccc1F)[C@@H]1CCN(C2CCN(C(=O)c3c(C)cccc3C)CC2)C1 [Example 59, N-[(3R)-1-[1-(2,6-dimethylbenzoyl)piperidin-4-yl]pyrrolidin-3-yl]-N-(2-fluorobenzyl)-N′-propylurea] has an IC50 [3] of 0.02 nM.

Cc1cccc(C)c1C(=O)N1CCC(N2CC[C@@H](N(Cc3ccc(F)cc3)C(=O)C3CC3)C2)CC1 [Example 15] gave an IC50 [1] of 34.1 nM.

For Cc1cccc(C)c1C(=O)N1CCC(C)(N2CC[C@@H](N(C=O)Cc3ccccc3F)C2)CC1 [Example 69], the IC50 [1] was 123 nM.

In the case of Cc1cccc(C)c1C(=O)N1CCC(N2CC[C@@H](N(Cc3cccc(Cl)c3)C(=O)C3CC3)C2)CC1 [Example 1, N-(3-chlorobenzyl)-N-{(3R)-1-[1-(2,6-dimethylbenzoyl)piperidin-4-yl]pyrrolidin-3-yl}cyclopropanecarboxamide], the IC50 [3] is reported as 0.14 nM.

Cc1ccnc(C)c1C(=O)N1CCC(N2CC[C@@H](N(Cc3ccccc3)C(=O)C(C)C)C2)CC1 [Example 30] showed an IC50 [1] of 18.9 nM.

Compound Cc1cccc(C)c1C(=O)N1CCC(N2CC[C@@H](N(Cc3ccccn3)C(=O)C3CC3)C2)CC1 [Example 16] has an IC50 [1] of 237 nM.

Cc1ccnc(C)c1C(=O)N1[C@@H]2CC[C@H]1C[C@H](N1CC[C@@H](N(Cc3ccccc3)C(=O)C3CC3)C1)C2 [Example 70, N-benzyl-N-((3R)-1-[(3-exo)-8-[(2,4-dimethylpyridin-3-yl)carbonyl]-8-azabicyclo[3.2.1]oct-3-yl]pyrrolidin-3-yl)cyclopropanecarboxamide] gave an IC50 [3] of 2.65 nM.

Compound O=C(c1c(F)cccc1Cl)N1CCC(N2CC[C@@H](N(Cc3ccccc3)C(=O)C3CC3)C2)CC1 [Example 49] has an IC50 [1] of 28.5 nM.

For COCC(=O)N(Cc1cc(F)ccc1F)[C@@H]1CCN(C2CCN(C(=O)c3c(C)ccnc3C)CC2)C1 [Example 23], the IC50 [1] was 1.42 nM.

Compound Cc1ccnc(C)c1C(=O)N1CCC(N2CC[C@@H](N(Cc3ccccc3F)C(=O)C3CC(F)(F)C3)C2)CC1 [Example 28] has an IC50 [1] of 12.4 nM.

Work on Cc1cccc(C)c1C(=O)N1CCC(N2CC[C@@H](N(Cc3ccccc3)C(=O)C3CC3)C2)CC1 [Example 10] yielded an IC50 [1] of 1.99 nM.

Cc1cccc(C)c1C(=O)N1CCC(N2CC[C@@H](N(Cc3ccccc3)C(=O)c3ccccc3)C2)CC1 [Example 12] gave an IC50 [1] of 4.06 nM.

Cc1ccccc1C(=O)N1C2CCC1CC(N1CCC(N(Cc3ccccc3)C(=O)C3CC3)C1)C2 (centres unmarked) [Example 72] gave an IC50 [1] of 97.3 nM.

Cc1ccnc(C)c1C(=O)N1CCC(N2CC[C@@H](N(Cc3ccccc3)C(=O)C3CC3)C2)[C@H](C)C1 (stereo partly drawn) [Example 60, N-benzyl-N-((3R)-1-{1-[(2,4-dimethylpyridin-3-yl)carbonyl]-3-methylpiperidin-4-yl}pyrrolidin-3-yl)cyclopropanecarboxamide] gave an IC50 [3] of 4.46 nM.

Compound CC(=O)N(Cc1ccccc1)[C@@H]1CCN(C2CCN(C(=O)c3c(C)ccnc3C)CC2)C1 [Example 29] has an IC50 [1] of 14 nM.

Cc1ncnc(C)c1C(=O)N1CCC(N2CC[C@@H](N(Cc3ccccc3F)C(=O)C3CC(F)(F)C3)C2)CC1 [Example 37] was tested, and the IC50 [1] was 62.6 nM.

Cc1ccnc(C)c1C(=O)N1CCC(N2CC[C@@H](N(Cc3ccccc3)C(=O)C3CC3)C2)CC1 [Example 21] showed an IC50 [1] of 0.82 nM.

Work on Cc1ncnc(C)c1C(=O)N1CCC(N2CC[C@@H](N(Cc3ccccc3)C(=O)C3CC(F)(F)C3)C2)CC1 [Example 34] yielded an IC50 [1] of 8.51 nM.

With Cc1ncnc(C)c1C(=O)N1CCC(N2CC[C@@H](N(Cc3ccccc3)C(=O)OC(C)C)C2)CC1 [Example 36] the IC50 [1] was 52 nM.

In the case of COCC(=O)N(Cc1ccccc1F)[C@@H]1CCN(C2CCN(C(=O)c3c(Cl)cccc3Cl)CC2)C1 [Example 44], the IC50 [1] is reported as 1.84 nM.

Cc1ncnc(C)c1C(=O)N1C2CCC1CC(N1CCC(N(Cc3ccccc3)C(=O)C3CC3)C1)C2 (centres unmarked) [Example 71] was tested, and the IC50 [1] was 4.27 nM.

With COCC(=O)N(Cc1cccc(F)c1F)[C@@H]1CCN(C2CCN(C(=O)c3c(C)ccnc3C)CC2)C1 [Example 26] the IC50 [1] was 6.51 nM.

Cc1ncnc(C)c1C(=O)N1CCC(C)(N2CC[C@@H](N(Cc3ccccc3)C(=O)C3CC(F)(F)C3)C2)CC1 [Example 67] was tested, and the IC50 [1] was 44.3 nM.

For Cc1cccc(C)c1C(=O)N1CCC(C)(N2CC[C@@H](N(Cc3ccccc3)C(=O)C3CC3)C2)CC1 [Example 61, N-benzyl-N-{(3R)-1-[1-(2,6-dimethylbenzoyl)-4-methylpiperidin-4-yl]pyrrolidin-3-yl}cyclopropanecarboxamide], the IC50 [3] was 0.23 nM.

With CCOc1ccccc1C(=O)N1CCC(N2CC[C@@H](N(Cc3ccccc3)C(=O)C3CCC3)C2)CC1 [Example 40] the IC50 [1] was 120 nM.

With Cc1cccc(C(=O)N2CCC(N3CC[C@@H](N(Cc4ccccc4)C(=O)CC4CC4)C3)CC2)c1Cl [Example 46] the IC50 [1] was 107 nM.

In the case of Cc1ccnc(C)c1C(=O)N1CCC(N2CC[C@@H](N(Cc3cccc(F)c3)C(=O)C(C)C)C2)CC1 [Example 33], the IC50 [1] is reported as 42.2 nM.

With CCc1noc(C)c1C(=O)N1CCC(C)(N2CC[C@@H](N(Cc3ccccc3)C(=O)C3CC3)C2)CC1 [Example 68] the IC50 [1] was 61.6 nM.

Cc1onc(C(C)C)c1C(=O)N1CCC(N2CC[C@@H](N(Cc3ccccc3)C(=O)C3CC3)C2)CC1 [Example 42] showed an IC50 [1] of 66.3 nM.

CC(=O)N(Cc1ccccc1)[C@@H]1CCN(C2CCN(C(=O)c3c(C)cccc3C)CC2)C1 [Example 11] was tested, and the IC50 [1] was 3.05 nM.

CC(=O)N(Cc1ccccc1F)[C@@H]1CCN(C2CCN(C(=O)c3c(C)cccc3C)CC2)C1 [Example 14] gave an IC50 [1] of 13 nM.

With Cc1cccc(C)c1C(=O)N1CCC(N2CC[C@@H](N(Cc3ccccc3)C(=O)C3CCC3)C2)CC1 [Example 5] the IC50 [1] was 0.27 nM.

Compound Cc1ncnc(C)c1C(=O)N1CCC(N2CC[C@@H](N(Cc3ccccc3)C(=O)C3CC3)C2)CC1 [Example 35] has an IC50 [1] of 9.9 nM.

Cc1ncnc(C)c1C(=O)N1CCC(N2CC[C@@H](N(Cc3cccc(F)c3)C(=O)C3CC(F)(F)C3)C2)CC1 [Example 39] was tested, and the IC50 [1] was 227 nM.

Work on Cc1ccnc(C)c1C(=O)N1CCC(N2CC[C@@H](N(Cc3cccc(F)c3)C(=O)C3CC(F)(F)C3)C2)CC1 [Example 32] yielded an IC50 [1] of 34.7 nM.

Compound COc1cc(Cl)ccc1C(=O)N1CCC(N2CC[C@@H](N(Cc3ccccc3)C(=O)C3CC3)C2)CC1 [Example 53] has an IC50 [1] of 104 nM.

Cc1cccc(C)c1C(=O)N1CCC(N2CC[C@@H](N(Cc3cccc(F)c3)C(=O)C3CC3)C2)CC1 [Example 9] was tested, and the IC50 [1] was 0.8 nM.

In the case of COCC(=O)N(Cc1ccccc1F)[C@@H]1CCN(C2CCN(C(=O)c3c(C)ccnc3C)CC2)C1 [Example 24], the IC50 [1] is reported as 119 nM.

For Cc1onc(-c2ccccc2)c1C(=O)N1CCC(N2CC[C@@H](N(Cc3ccccc3)C(=O)C3CC3)C2)CC1 [Example 41], the IC50 [1] was 0.41 nM.

In the case of Cc1ccc(C(=O)N2CCC(N3CC[C@@H](N(Cc4ccccc4)C(=O)C4CC4)C3)CC2)c(C)c1 [Example 20], the IC50 [1] is reported as 221 nM.

With COCC(=O)N(Cc1ccccc1)[C@@H]1CCN(C2CCN(C(=O)c3c(C)cccc3C)CC2)C1 [Example 4] the IC50 [1] was 0.23 nM.

Cc1ccccc1C(=O)N1CCC(N2CC[C@@H](N(Cc3ccccc3)C(=O)C3CC3)C2)CC1 [Example 17] gave an IC50 [1] of 40.8 nM.

For Cc1ccnc(C)c1C(=O)N1CCC(C)(N2CC[C@@H](N(Cc3ccccc3)C(=O)C3CC3)C2)CC1 [Example 62], the IC50 [1] was 0.34 nM.

COCC(=O)N(Cc1ccccc1F)[C@@H]1CCN(C2CCN(C(=O)c3c(F)cccc3Cl)CC2)C1 [Example 50] was tested, and the IC50 [1] was 77.7 nM.

With COc1ccc(C(=O)N2CCC(N3CC[C@@H](N(Cc4ccccc4)C(=O)CC4CC4)C3)CC2)cc1C [Example 57] the IC50 [2] was 6200 nM.

CCc1cnn(C)c1C(=O)N1CCC(N2CC[C@@H](N(Cc3ccccc3)C(=O)C3CC3)C2)CC1 [Example 43] gave an IC50 [1] of 59.8 nM.

Compound Cc1cccc(C)c1C(=O)N1CCC(N2CC[C@@H](N(Cc3ccccc3)S(C)(=O)=O)C2)CC1 [Example 58, N-benzyl-N-{(3R)-1-[1-(2,6-dimethylbenzoyl)piperidin-4-yl]pyrrolidin-3-yl}methanesulfonamide] has an IC50 [3] of 92.5 nM.

In the case of Cc1cc[n+]([O-])c(C)c1C(=O)N1CCC(N2CC[C@@H](N(Cc3ccccc3)C(=O)C3CC3)C2)CC1 [Example 54], the IC50 [1] is reported as 34.3 nM.

Cc1cccc(C)c1C(=O)N1CCC(N2CC[C@@H](N(Cc3ccccc3F)C(=O)C3CC3)C2)CC1 [Example 3] gave an IC50 [1] of 0.2 nM.

Cc1cccc(C)c1C(=O)N1CCC(N2CC[C@@H](N(Cc3ccccc3)C(=O)CC(F)(F)F)C2)CC1 [Example 6] gave an IC50 [1] of 0.34 nM.
